From patent publication US20230055441A1 (NONO INC., priority 2020, published 2023)
“Also recorded” adds a separate entry of the source. Read-outs that look alike come from different tables or passages of the source. Square brackets hold non-standard residues; d marks the D form. Ends that are not written are not given here. Peptide text beside a SMILES is read from it.

Legend:
NMDAR2B:PSD-95 complexes = target: T1, NMDAR2B:PSD-95 complexes (Rattus norvegicus, UniProt P31016); experiment: Dissociation of NMDAR2B:PSD-95 complexes in three pial vessel model (3PVo), immunoprecipitation and Western blotting; type: in vivo, Sprague-Dawley rats; details: 7.6 mg/kg 1 hr after stroke onset, brains harvested 2 h after onset, rat 3PVo
T1 construct: Cortical stroke areas were collected for analysis; from tissue; host or cells: rat brain, cortical stroke area, after in vivo dosing
T1 sequence (P31016 whole entry, one chain of several): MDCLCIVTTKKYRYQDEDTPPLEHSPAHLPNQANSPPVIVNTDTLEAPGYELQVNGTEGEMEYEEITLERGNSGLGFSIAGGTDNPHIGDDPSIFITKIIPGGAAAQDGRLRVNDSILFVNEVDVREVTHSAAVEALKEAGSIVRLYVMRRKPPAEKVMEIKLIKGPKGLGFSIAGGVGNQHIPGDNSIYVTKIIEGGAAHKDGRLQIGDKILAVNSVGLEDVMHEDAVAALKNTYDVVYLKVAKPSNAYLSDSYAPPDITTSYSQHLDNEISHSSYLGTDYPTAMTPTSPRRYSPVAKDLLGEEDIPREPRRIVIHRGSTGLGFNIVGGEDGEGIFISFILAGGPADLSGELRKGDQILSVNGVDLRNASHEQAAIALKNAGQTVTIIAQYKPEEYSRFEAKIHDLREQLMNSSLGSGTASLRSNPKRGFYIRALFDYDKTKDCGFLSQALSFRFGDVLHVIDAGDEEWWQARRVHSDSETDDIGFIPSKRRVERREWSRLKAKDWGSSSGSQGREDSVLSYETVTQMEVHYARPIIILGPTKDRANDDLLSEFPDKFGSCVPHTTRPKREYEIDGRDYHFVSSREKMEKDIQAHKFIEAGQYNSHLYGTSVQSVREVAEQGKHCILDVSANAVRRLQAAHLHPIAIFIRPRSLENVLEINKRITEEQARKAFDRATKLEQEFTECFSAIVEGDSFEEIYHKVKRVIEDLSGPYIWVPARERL
Method: Sprague-Dawley rats were subject to three pial vessel model (3PVo). […] Brains were harvested 2 h after stroke onsets. Cortical stroke areas were collected for analysis. Immunoprecipitations were performed with anti-PSD-95 or anti-NMDAR2B. The amount of PSD-95 and NMDAR2B in samples was analyzed by Western blotting. Reduction in PSD-95-NMDAR2B complex formation was assessed by fold decrease of placebo versus treatment.

plasmin [1] = target: T2, plasmin (Homo sapiens, UniProt P00747); type: in vitro ADME
T2 construct: NA-1 was digested with plasmin
T2 sequence (P00747 581-810 limits assumed, species assumed): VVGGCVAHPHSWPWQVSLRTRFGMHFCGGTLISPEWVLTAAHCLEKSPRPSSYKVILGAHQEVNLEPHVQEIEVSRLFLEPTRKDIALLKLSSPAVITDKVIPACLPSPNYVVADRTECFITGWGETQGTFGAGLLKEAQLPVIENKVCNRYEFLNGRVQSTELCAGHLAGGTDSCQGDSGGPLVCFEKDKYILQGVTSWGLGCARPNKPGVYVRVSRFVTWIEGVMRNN
T2 sequence (P00747 97-580 limits assumed, species assumed): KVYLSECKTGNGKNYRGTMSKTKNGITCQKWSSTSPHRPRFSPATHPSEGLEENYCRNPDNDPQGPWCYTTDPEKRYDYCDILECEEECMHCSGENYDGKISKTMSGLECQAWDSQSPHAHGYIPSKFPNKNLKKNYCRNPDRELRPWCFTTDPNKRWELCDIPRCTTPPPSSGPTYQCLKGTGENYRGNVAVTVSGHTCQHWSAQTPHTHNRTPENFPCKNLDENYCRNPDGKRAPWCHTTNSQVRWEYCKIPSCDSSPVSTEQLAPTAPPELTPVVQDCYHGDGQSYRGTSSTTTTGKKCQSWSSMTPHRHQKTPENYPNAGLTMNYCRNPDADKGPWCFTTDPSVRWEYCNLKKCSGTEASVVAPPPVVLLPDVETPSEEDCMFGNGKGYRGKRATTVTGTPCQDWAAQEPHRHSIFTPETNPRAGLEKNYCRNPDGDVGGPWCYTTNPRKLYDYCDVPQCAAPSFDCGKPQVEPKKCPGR
From the text: Plasmin is a serum protease induced by thrombolytic agents, such as tPA. Plasmin cleavage sites can occur on the C-terminal side of basic amino acids residues in a peptide formed of L-amino acids. NA-1 was digested with plasmin and the products analyzed by mass spectrometry. […] However, cleavage at the other two sites may occur to a lesser extent.

rt-PA [2] = experiment: Degradation in rat plasma in vitro with rt-PA
plasmin [3] = target: T2, plasmin; type: in vitro ADME; remark: listed apart in the source
PSD95PDZ2 = PSD95PDZ2 (Homo sapiens, UniProt P78352); experiment: Competitive ELISA with biotinylated-NA-1 on coated PSD95PDZ2; type: binding; details: for EC50 compared among NA-1, D-Tat-L-2B9C and D-NA-1: FIG. 12
Chain of PSD95PDZ2 (P78352 160-246 limits assumed): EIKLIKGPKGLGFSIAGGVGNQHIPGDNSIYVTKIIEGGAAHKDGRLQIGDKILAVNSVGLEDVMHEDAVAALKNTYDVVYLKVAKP
Method: Binding was evaluated with a competitive ELISA assay. A plate was coated with 1 ug/ml PSD95PDZ2 in 50 mM bicarbonate buffer overnight at 4C. The plate was blocked in 2% BSA in PBST (0.05%) for 2 h at room temperature. […] The wells were washed again, and then incubated with TMB solution for 10 min. The reaction was stopped with 100 ul H2SO4. Absorbance was determined at 450 nm with the synergy H1 reader.

rt-PA [4] = experiment: Degradation in human plasma in vitro with rt-PA; details: given simultaneously with rt-PA (tPA)
[5] = tested on: 3-pial vessel occlusion model of stroke; details: for infarct volume: versus placebo
Method: Treatments were administered subcutaneously as a bolus injection, 60 minutes after the onset of stroke. […] Data is presented as mean±SD, N=10/group. The asterisk (*) represents statistical significance when compared to Placebo (ANOVA, with a Tukey's post-hoc analysis, *P<0.0332, **P<0.0021, ***P<0.0002 and ****P<0.0001).

[6] = tested on: embolic MCA occlusion model; experiment: Embolic MCA occlusion model (eMCAo); type: in vivo
[7] = tested on: TNK-tissue plasminogen activator; experiment: Degradation in human plasma with TNK-tissue plasminogen activator; details: given simultaneously with TNK
From the text: (§1) The experiment was repeated using TNK-tissue plasminogen activator in place of tPA.

[8] = Plasma concentrations 15 minutes after subcutaneous dose in rats of the 3-pial vessel occlusion study; type: in vivo; details: rat, single subcutaneous administration 25, 7.6, 2.5 mg/kg
Method: Unlike transient models of stroke in rats where much lower doses are required for neuroprotection, neuroprotection in 3 pial vessel occlusion models of stroke seems to require plasma concentrations of nerinetide at or above 2 ug/mL (or molar equivalent). […] Although the plasma levels continue to increase through about 3 hours then decrease, it is important to achieve rapid accumulation in the blood and brain for emergency indications like stroke. […] For pharmacokinetic sample analysis, calibration standard samples at concentrations of 0, 2.5, 5, 10, 15, 20 and 40 ug/mL of nerinetide were prepared by spiking 1 μL of the appropriate stock to 100 μL of plasma. […] Data is presented as mean±SD.

[9] = 2.6 mg/kg dose; cited from earlier work
[10] = Pharmacokinetic analysis in rats by route (subcutaneous, pulmonary instillation, intramuscular, intravenous); details: rat
Method: (§2) Rats were anaesthetized in the supine position (Isoflurane 1.5-%) and allowed to breath spontaneously in 0.5 L/min 02. The left femoral artery was cannulated for blood sampling.
(§3) Test agents were prepared at the stablish concentration in a total volume of vehicle. Pulmonary instillation was performed by intubation with a 14G catheter connected to a 1 cc syringe and the test agent will be delivered through the catheter. Subcutaneous (SQ or SC) injection was injected into the area of the left flank, no more than 2 ml of total volume per site.
(§4) Each dose was evaluated in 3 rats for each administration strategy. […] For the first experiment, evaluating two different administration routes (SQ and PI), blood samples were collected at 8 different timepoints: Pre and at 7 additional times (1, 2.5, 5, 10, 15, 30, 60 min) post dose (250 ul/sample). For the 24-hour PK curve experiment, blood samples were collected at 11 timepoints: Pre, 2.5, 5, 10, 15, 30, 60 min, 3 hr, 6 hr, 12 hr and 24 hr.
(§5) HPLC quantification: Plasma was separated from blood and stored at −80° C. until used. Each sample was precipitated by adding 1M HCl (10 ul/100 ul sample) at >80° C., centrifuged (12,000 rpm×15 min) and the precipitate collected. A 5 cm C—18 RP-HPLC column was equilibrated with 10% acetonitrile with 0.1% TFA at 40° C., the sample was injected and run in an Agilent 1260 Infinity Quaternary LC System. (30 min at 1.5 mL/min; gradient from 10% to 35% acetonitrile in 0.1% TFA; Absorbance detected at 220 nm). Standard curves for HPLC were generated from plasma samples spiked with known quantities of test agent.

[11] = tested on: TNK-tissue plasminogen activator; experiment: Degradation in rat plasma with TNK-tissue plasminogen activator; details: given simultaneously with TNK
From the text: as §1

[12] = NA-1 plasma levels after administering NA-1 and tPA to rats; set-up: species or system rat; details: rats in vivo, rt-PA 5.4 mg/kg, versus NA-1 alone
histamine = details: rat, in vivo, iv, 7.6 mg/kg
Method: Blood samples were collected at 11 timepoints: Pre, 2.5, 5, 10, 15, 30, 60 min, 3 hr, 6 hr, 12 hr and 24 hr. Histamine levels were quantified by using commercially available histamine ELISA assay kit (Histamine ELISA-H1531-K01, Eagle Bioscience). The plates were coated with the plasma samples (50 ul/well) incubated for 60 minutes at room temperature on an orbital shaker with medium frequency. Then 100 ul of enzyme conjugate was added to the wells and incubated for 20 minutes at room temperature. Samples were washed again, and then incubated for 25 minutes at room temperature with TMB solution. The reaction was stopped with 100 ul H2SO4. Absorbance was determined on an ELISA plate reader at 450 nm.
Blood samples were taken at pre-injection and at 0, 1, 2.5, 5, 10, 15, 30- and 60-minutes post dose and used for histamine levels quantification using commercially available kit.

rt-PA [13] = tested on: rt-PA
tPA = tPA (Homo sapiens, UniProt P00750)
Chain of tPA (P00750 36-562): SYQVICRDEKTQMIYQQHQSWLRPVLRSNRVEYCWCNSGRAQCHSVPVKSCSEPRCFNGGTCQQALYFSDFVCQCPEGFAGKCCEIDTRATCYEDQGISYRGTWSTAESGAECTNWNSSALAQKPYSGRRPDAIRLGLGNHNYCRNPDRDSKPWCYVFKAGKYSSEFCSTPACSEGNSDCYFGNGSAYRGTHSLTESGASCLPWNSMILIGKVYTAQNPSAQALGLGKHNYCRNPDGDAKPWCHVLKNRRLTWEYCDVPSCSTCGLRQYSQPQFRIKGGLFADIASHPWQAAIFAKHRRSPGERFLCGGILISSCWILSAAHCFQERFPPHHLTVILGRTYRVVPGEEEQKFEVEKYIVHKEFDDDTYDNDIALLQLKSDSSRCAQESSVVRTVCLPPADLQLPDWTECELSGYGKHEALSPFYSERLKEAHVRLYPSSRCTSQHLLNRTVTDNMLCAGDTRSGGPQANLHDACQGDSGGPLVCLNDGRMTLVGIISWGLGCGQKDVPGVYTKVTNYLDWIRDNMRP

[14] = rat, in vivo, 25 mg/kg
Method: as §2, §3, §4, §5

[15] = without tPA, 7.6 mg/kg IV bolus 1 hour after stroke onset
[16] = intramuscular versus intravenous

## YGRKKRRQRRRKLSSIESDV [NA-1]
NMDAR2B:PSD-95 complexes
  dissociation of preformed NMDAR2B:PSD-95 complexes: able to dissociate preformed NMDAR2B:PSD-95 complexes
Plasmin [1]
  plasmin cleavage sites: cleavage at seven of nine potential sites
rt-PA [2]; given simultaneously with rt-PA (tPA)
  peptide content / degradation in rat plasma with rt-PA: decayed much more rapidly when tPA was co-administered; also recorded: significantly reduced
rt-PA [2]; treated with tPA
  time to decay to zero with tPA: ≤ 15 min
Plasmin [3]
  degradation by plasmin in PBS: rapidly degraded
PSD95PDZ2
  EC50 compared among NA-1, D-Tat-L-2B9C and D-NA-1: about the same within experimental error
PSD95PDZ2; competitive ELISA
  binding to PSD-95 PDZ2 domain: high binding affinity
rt-PA [4]
  peptide content / degradation in human plasma with rt-PA: decayed much more rapidly when tPA was co-administered; also recorded: significantly reduced
[5]; 7.6 mg/kg subcutaneous bolus 60 minutes after onset of stroke
  infarct volume: failed to achieved infarct volume reduction
[5]; 25 mg/kg subcutaneous bolus 60 minutes after onset of stroke
  infarct volume: significant reduction in infarct volume
[5]; rat, in vivo
  plasma concentration required for neuroprotection: ≥ 2000 ng/mL
[6]; tPA co-administered (rt-PA 5.4 mg/kg), 7.6 mg/kg IV 1 hour after stroke onset
  infarction volume: reducing its effect
[6]; [15]
  infarction volume: significantly reduced infarction volume and right hemisphere swelling
  right hemisphere swelling: significantly reduced infarction volume and right hemisphere swelling
[7]
  peptide content / degradation in human plasma with TNK: rapid degradation; also recorded: reduced
[8]
  dose proportionality between treatment dose and Cmax: dose proportionality
[9]
  effective plasma concentration in human studies: ~10 µg/mL
[10]; [16]
  AUC, intramuscular: somewhat higher AUC
  Cmax, intramuscular: lower CMax
  half-life, intramuscular: higher half-life
[10]; subcutaneous versus same dose intravenous NA-1
  half-life, subcutaneous: longer half-life
[10]; subcutaneous, 25 mg/kg (Table 4), NA-1 versus IV NA-1, others versus subcutaneous NA-1
  Cmax, subcutaneous: much lower CMax
[10]; subcutaneous, 25 mg/kg (Table 4), NA-1 versus IV NA-1, others versus subcutaneous NA-1, 25 mg/kg
  AUC / plasma exposure, subcutaneous: somewhat lower AUC
[11]
  peptide content / degradation in rat plasma with TNK: rapid degradation; also recorded: reduced
[12]
  AUC when administered simultaneously with rt-PA: significantly reduced
  Cmax when administered simultaneously with rt-PA: significantly reduced

## CC[C@H](C)[C@H](NC(=O)[C@H](CO)NC(=O)[C@H](CO)NC(=O)[C@H](CC(C)C)NC(=O)[C@H](CCCCN)NC(=O)[C@@H](CCCNC(=N)N)NC(=O)[C@@H](CCCNC(=N)N)NC(=O)[C@@H](CCCNC(=N)N)NC(=O)[C@@H](CCC(N)=O)NC(=O)[C@@H](CCCNC(=N)N)NC(=O)[C@@H](CCCNC(=N)N)NC(=O)[C@@H](CCCCN)NC(=O)[C@@H](CCCCN)NC(=O)[C@@H](CCCNC(=N)N)NC(=O)CNC(=O)[C@H](N)Cc1ccc(O)cc1)C(=O)N[C@@H](CCC(=O)O)C(=O)N[C@@H](CO)C(=O)N[C@@H](CC(=O)O)C(=O)N[C@H](C(=O)O)C(C)C [D-TAT-L-2B9c] (H-[dY]G[dR][dK][dK][dR][dR][dQ][dR][dR][dR]KLSSIESDV-OH; N-terminus and C-terminus assumed)
histamine
  histamine release: did result in significant histamine release
Plasmin [3]
  degradation by plasmin in PBS: resistant to plasmin cleavage
PSD95PDZ2
  IC50: < 5 µM
  EC50 compared among NA-1, D-Tat-L-2B9C and D-NA-1: about the same within experimental error
rt-PA [13]
  peptide content / degradation in human plasma with rt-PA: resistant to proteolysis
tPA
  degradation by tPA or TNK in PBS without plasma: no degradation
[14]
  AUC / plasma exposure, subcutaneous: also increased Cmax and AUC relative to subcutaneous NA-1 but not to the same extent
  Cmax, subcutaneous: also increased Cmax and AUC relative to subcutaneous NA-1 but not to the same extent
